Patent publication US8344022B2, “Vaginal health products” (Kimberly-Clark Worldwide, Inc., priority 2004, dated 2013)
Values joined by “and” are separate entries in the source; they are usually repeats but may differ in a detail not shown here. Equal values may be shown once. “Also recorded” adds a separate entry of the source.

How the values were obtained:
[1] = test system: ME-180 cells; test: ME-180 cell growth (cell counting) with vitamin E or vitamin A derivatives; type: cell-based, human; conditions: for effect on ME-180 cell growth: 1 nM, 10 nM and 100 nM; for ME-180 cell growth vs negative control (FIG. 2): 1 μM or 10 μM, two days; for ME-180 cell growth: three days
Experimental: Cell Culture. Human cervical epithelial cells (ME-180, ATCC) were propagated in culture at 37° C. using 5% CO2 in McCoy's 5A media (Invitrogen) with 10% heat-inactivated fetal bovine serum (Invitrogen). Vitamin E was purchased from ICN Biomedicals. Vitamin E stock solutions were made up in absolute ethanol.
ME-180 cells were incubated with vitamin E at various concentrations for three days. At 10 μM vitamin E, ME-180 cell growth was inhibited (data not shown). However, this may be due to the presence of a larger concentration of ethanol (used as a solvent for vitamin E) in the media. […] At 1 μM vitamin E, ME-180 cell growth was enhanced more than the corresponding negative control. At 100 nM vitamin E, cell growth was not effected in comparison to the negative control. Therefore, a concentration of 1 μM vitamin E was used to measure changes in RNA expression over a 24 hour period.
Cell Proliferation of ME-180 Cells. ME-180 cells were incubated with vitamin A derivatives for a period of up to 3 days. ME-180 cells were counted on each day.

[2] = test system: human skin keratinocytes; test: Keratinocyte proliferation, 96-well Cell Titer 96 assay; type: cell-based; conditions: 1×10^−4 to 1×10^−6 M
Experimental: The proliferative response of these human skin keratinocytes to the test compounds was measured in a 96-well assay system using keratinocyte basal medium (KBM, Clonetics, catalog number CC-3103) as a control. […] In addition, 100 μl of vehicle KBM was added to 5 wells as control. […] The spectrophotometric absorbance of each well was read at 490 nm.

[3] = test system: fibronectin production in human skin fibroblast cell line; test: Fibronectin production by human skin fibroblasts (Takara EIA MK115); type: cell-based; conditions: all concentrations tested, vs control
Experimental: The cells were first grown in a 96-well assay system using Dulbecco's Modified Eagle's Medium (DMEM) with 10% fetal bovine serum (FBS) both purchased from Sigma Chemical Co, St. Louis, Mo. Serum-free DMEM was used as a control. […] The fibronectin assay was performed using the recommended 100 μl of the supernatant from each well of the 96-well plate. Standard buffer and stop solutions were freshly prepared before running the assay. A pre-antibody-coated 96 well plate (provided with the kit) was used to transfer the test samples and control. The plate was mixed, sealed and incubated for 1 hour at 37° C. All the wells were washed after removing sample solutions, 3 times (300 μl) with washing buffer. 100 ul of antibody-POD conjugate solution was added into the wells. Plate was mixed, sealed and incubated for one hour at 37° C. Solutions were removed and the wells were washed 3 times with washing buffer. All the wells were completely emptied at the end of washing from any liquid. 100 μl of substrate solution (hydrogen peroxide and tetramethylbenzidine in a buffered solution) was added to each well and the plate was incubated at room temperature for 15 minutes. 100 μl of stop solution (freshly prepared 1N H2SO4) was added to each well in the same order as substrate. The plate was gently mixed and absorbance was read at 450 nm.

[4] = test system: collagen production in human skin fibroblast cell line; test: Collagen production by human skin fibroblasts (Takara EIA MK101); type: cell-based; conditions: 1×10^−4 to 1×10^−6 M
Experimental: The cells were first grown in a 96-well assay system using Dulbecco's Modified Eagle's Medium (DMEM) with 10% fetal bovine serum (FBS) both purchased from Sigma Chemical Co, St. Louis, Mo. Serum-free DMEM was used as a control.
The assay was done by using the recommended 20 ul of the supernatant from each well of the 96-well plate. Standard buffer and stop solutions were freshly prepared before running the assay. 100 ul of antibody-POD conjugate solution (supplied with the kit) was added into the wells using pre antibody coated 96 well plate (supplied with the kit). 20 ul of standard and test solutions (from the other 96-well plate containing fibroblasts) were added to appropriate wells. Plate was mixed gently, sealed and incubated for three hrs. at 37° C.
After incubation each well was washed carefully four times with PBS buffer (400 ul). All the wells were completely emptied at the end of washing from any liquid.
100 ul of substrate solution (hydrogen peroxide and tetramethylbenzidine in a buffer solution, supplied with the kit) was added to each well and the plate was incubated for 15 minutes. At this point 100 ul of stop solution (freshly prepared 1N H2SO4) was added to each well in the same order as substrate. The plate was gently mixed and absorbance was read at 450 nm.

[5] = test system: stratum corneum; test: Dansyl chloride cell renewal study in healthy female volunteers; type: in vivo, human
Text: The stratum corneum renewal time is the time taken for the whole thickness of the stratum corneum to be exfoliated and replaced by new cells from the dividing epidermis. This renewal time is a fundamental indicator of skin health. […] See Jansen L H, Hojyo-Tomoko M T, Kligman A M., Improved fluorescence staining technique for estimating turnover of the human stratum corneum, Br J Dermatol., 90, 9-12, 1974; Ridge B D, Batt M D, Palmer H E, Jarrett A, The dansyl chloride technique for stratum corneum renewal as an indicator of changes in epidermal mitotic activity following topical treatment., Br J Dermatol., 118, 167-74, 1988; Grove G L, Kligman A M, Age-associated changes in human epidermal cell renewal., J Geron., 38, 137-142, 1983. The time required for the dye to disappear is therefore an indication of the turnover time of the stratum corneum. Therefore, any differences in the time required for the dye to disappear from treated and non-treated sites can be considered to be an expression of that product's ability to enhance epidermal renewal.
A dansyl chloride cell renewal study was conducted in healthy female volunteers ranging from 43-64 years of age. The study consisted of a two-week treatment period during which time the products were applied topically twice daily, including on weekend days, to the test sites. The area of application was designated, approximately 5 cm×10 cm on the upper inner arm. The other arm served as a control with no product application. […] Eight females received jasmonic acid and seven females received gibberellic acid.
The time required for a marker dye to disappear was used as the measure of cell renewal rate.

[6] = test system: vascular endothelial growth factor (VEGF); test: RT-PCR expression assay in ME-180 cells: VEGF; type: cell-based, human
[7] = test system: mucin-4 (MUC-4); test: RT-PCR expression assay in ME-180 cells: mucin-4; type: cell-based, human; conditions: for MUC-4 expression: 100 nM vitamin A; for mucin-4 expression: 1 μM vitamin E, 24 hours
Experimental: (§1) RNA Extraction from ME-180 cells. ME-180 cells were plated at 2×10^5 cells per T75 flask (15 mL total volume) and were allowed to propagate for four days. On day four, the media was removed. Fifteen mL of McCoy's SA media with or without 10% FBS containing 0 or 1 μM vitamin E were added to ME-180 cells in duplicate. ME-180 cells were incubated with these solutions for 24 hours. The media was removed, and 1500 μL of lysis buffer was added to the flasks. The cells were scraped off of the flask with a cell scraper. The RNA was isolated using the Ambion RNAqueous kit according to the manufacturer's instructions. Precipitated RNA was resuspended in DEPC-treated water with 1 μL of RNase inhibitor.
(§2) Reverse Transcription of RNA. Approximately 7 μL of RNA was incubated with 3 μL of primer at 80° C. for 10 minutes then immediately placed on ice. A master mix containing 4 μL DEPC water, 4 μL 5× reaction buffer, 1 μL dNTPs, 1 μL of RNase inhibitor, and 1 μL of reverse transcriptase was made for the reactions. Ten μL of master mix was added to the RNA/primer solution and placed at 42° C. for 2 hours. The resulting cDNA was incubated with 3.5 μL of NaOH solution at 70° C. for 10 minutes to hydrolyze the remaining RNA. Five μL of 0.5M Tris/EDTA was added to neutralize the solution. To precipitate the cDNA, 125 μL of 3M NH4OAc, 5 μL of linear polyacrylamide, and 700 μL of absolute ethanol were added. The solutions were vortexed and placed at −20° C. overnight. Samples were centrifuged at 14000 rpm at 4° C. for 30 minutes. The ethanol was removed, and the samples were allowed to dry for 10 minutes. The cDNA was resuspended in 10-12 μL of PCR grade water.
(§3) Polymerase Chain Reaction (PCR). A master mix using the Advantage 2 PCR kit (Ambion) was made for the PCR reactions containing 37-38 μL of PCR grade water, 5 μL of 10×PCR buffer, 1 μL of dNTPs, 1 μL of β-actin primers (10 μM, optional control), and 2 μL of test primers (10 μM, P2Y2, or Mucin-4 (MUC-4)). Two microliters of cDNA and […] of DNA polymerase were added. Cycling conditions were as follows: 5 min at 95° C.; 25-30 cycles (30 sec at 95° C., 1 min at 65° C., 3 min at 68° C.); 5 min at 68° C.
RNA was isolated (as described above) from ME-180 cervical cells treated with 0 nM or 100 nm vitamin A in the absence of serum. The RNA was reverse transcribed to form cDNA, and PCR techniques (as described above) were used to determine the effect of vitamin A on the expression of mucin-4 (MUC-4).

[8] = test system: P2Y2 receptor gene; test: RT-PCR expression assay in ME-180 cells: P2Y2; type: cell-based, human
Experimental: as §1, §2
as §3, with “Cycling conditions were as follows: 5 min at 95° C.; 25-30 cycles (30 sec at 95° C., 1 min at 65° C., 3 min at 68° C.); 5 min at 68° C.” left out

[9] = test system: estrogen receptor alpha (ER-α); test: RT-PCR expression assay in ME-180 cells: ER-α; type: cell-based, human; conditions: 100 nM vitamin A, no serum, 4, 8 and 16 hours
Experimental: Cell samples exposed to vitamin A in the absence of serum were also tested for expression of other genes that may also affect atrophic vaginitis. Using primers designed to amplify the estrogen receptor alpha (ER-α) gene, PCR was performed using the RNA samples from cells starved of serum. The ER-α product (650 bp) was visible in the control (FIG. 4, lane 2), where the template was cDNA from ME-180 cells cultured in the presence of serum. […] However, in the samples that were exposed to 100 nM vitamin A but no serum for 4, 8, and 16 hours, the […] gene was expressed (Lanes 4-6, respectively). […] Increasing the amount of estrogen receptors on epithelial cells in the genital tract may increase the probability that a receptor will be activated by estrogen.

[10] = test system: DTR; test: RT-PCR expression assay in ME-180 cells: DTR; type: cell-based, human; conditions: 1 μM vitamin E, 24 hours, absence of serum
[11] = 1 μM vitamin E, 24 hours, absence of serum

With `CC1=C(/C=C/C(C)=C\C=C\C(C)=C\C(=O)O)C(C)(C)CCC1` [9-cis-retinoic acid] as the compound, how does the “effect on ME-180 cell growth” value [1] read?
Its value is “little effect”.

Which “effect on ME-180 cell growth” value [1] does the source give for `CC1=C(/C=C/C(C)=C/C=C/C(C)=C\C(=O)O)C(C)(C)CCC1` [13-cis-retinoic acid] here?
The value was “little effect”.

And the “ME-180 cell growth vs negative control (FIG. 2)” value [1]?
Its value is “did not grow as well as the negative control”.

And the “toxicity to ME-180 cells” value ([1]; micromolar concentrations)?
Its value is “toxic”.

What does the source list for `C=C1C[C@]23C[C@@]1(O)CC[C@H]2[C@@]12C=C[C@H](O)[C@@](C)(C(=O)O1)[C@H]2[C@@H]3C(=O)O` [gibberellic acid, Gibberellin A3]?
cell proliferating activity on human keratinocytes (summary in words) [2]: strong cell proliferating activity; fibronectin production in human fibroblasts (summary in words) [3]: effective; collagen production in human fibroblasts (summary in words) [4]: stimulate collagen production; skin irritation or redness ([5]; 0.25% topical twice daily, two weeks, all study volunteers): no visible sign of any skin irritation or redness; RENEWAL, time for cell renewal of treated skin ([5]; individual patients (one value per patient #), 0.25% in hyaluronic acid (0.5% aqueous solution), topical twice daily, upper inner arm, listed as GA): 14 Days (2×) and 12 Days (2×) and 19 Days and 17 Days and 21 Days; faster cell renewal rate over control ([5]; overall, 0.25% topical, vs untreated arm): 20%; reduction in time required for cell renewal vs untreated control ([5]; vs volunteers' control without treatment): about 20%

Which results are given for `CC1=C(/C=C/C(C)=C/C=C/C(C)=C/C(=O)O)C(C)(C)CCC1` [trans-retinoic acid]?
toxicity (conclusion of the ME-180 experiments) [1]: nontoxic; ME-180 cell growth compared with other agents or unexposed control ([1]; 1 nM to 100 nM experiment): growing slightly faster; effect on ME-180 cell growth [1]: little effect; ME-180 cell growth vs negative control (FIG. 2) [1]: more cells were present; VEGF expression ([6]; 100 nM vitamin A): increased; MUC-4 expression ([7]; absence of serum, 4 hours or 8 hours): detectable; MUC-4 expression ([7]; absence of serum, 16 hours): decreases but is still detectable; P2Y2 expression ([8]; 100 nM vitamin A, in the presence and in the absence of serum): increase; ER-α expression [9]: expressed; also recorded: increase

What does the source list for vitamin E?
ME-180 cell growth ([1]; 100 nM vitamin E, vs negative control): not effected; ME-180 cell growth ([1]; 1 μM vitamin E, vs negative control): enhanced; ME-180 cell growth ([1]; 10 μM vitamin E, ethanol control also showed no growth): inhibited; VEGF expression [6, 11]: no observable difference; DTR expression [10]: no observable difference; mucin-4 expression ([7]; absence of serum): increases; also recorded: significantly increased; mucin-4 expression ([7]; presence of serum): no significant changes; P2Y2 expression [8, 11]: no observable difference; P2Y2 expression ([8]; 1 μM vitamin E, 24 hours, presence of serum): no significant changes
